Results: US12667559B2, “Dihydronaphthyridinone compound, and preparation method therefor and medical use thereof” (GENFLEET THERAPEUTICS (SHANGHAI) INC., priority 2020, dated 2026)

system: U937 cells; assay: Inhibitory activity against TNF-α induced programmed cell necrosis (U937 cells, CellTiter-Glo); format: cell-based, human; settings: Homo sapiens, U-937, 48 h, U937 cells, human TNF-α and Q-VD-Oph induced necrosis, 48 hours, survival rate; read-out: U937 IC50

Q: Which IC50 does the source give for `Nc1nc2cc(-c3cnc4c(c3)C(=O)N(c3cnn(Cc5ccc(F)cc5)c3)CC4)ccn2n1` [Z52, 3-(2-amino-[1,2,4]triazolo[1,5-a]pyridyl-7-yl)-6-(1-(4-fluorobenzyl)-1H-pyrazol-4-yl)-7,8-dihydro-1,6-naphthyridin-5(6H)-one] here?
A: 19 nM

Q: `CC(=O)Nc1cn2nc(-c3cnc4c(c3)C(=O)N(Cc3cc(OC(F)(F)F)ccc3F)CC4)ccc2n1` [Z9, N-(6-(6-(2-fluoro-5-(trifluoromethoxy)benzyl)-5-oxo-5,6,7,8-tetrahydro-1,6-naphthyridin-3-yl)imidazo[1,2-b]pyridazin-2-yl)acetamide] was tested. Which IC50 did it give?
A: 10.4 nM

Q: How did the IC50 turn out when `O=C1c2cc(-c3ccncc3)cnc2CCN1Cc1cc(F)cc(F)c1OC1CCOCC1` [Z11, 6-(3,5-difluoro-2-((tetrahydro-2H-pyran-4-yl)oxy)benzyl)-3-(pyridin-4-yl)-7,8-dihydro-1,6-naphthyridin-5(6H)-one] was run?
A: 31.2 nM

Q: With `C[C@@](O)(C(=O)N1CC[C@H](N2CCc3ncc(-c4cc(C(F)(F)F)c5c(N)ncnn45)cc3C2=O)C1)C(F)(F)F` [Z32] as the compound, how does the IC50 read?
A: 26.8 nM

Q: How did the IC50 turn out when `CC(=O)Nc1cn2nc(-c3cnc4c(c3)C(=O)N(Cc3cc(F)ccc3OC3CCCC3)CC4)ccc2n1` [Z6, N-(6-(6-(2-(cyclopentyloxy)-5-fluorobenzyl)-5-oxo-5,6,7,8-tetrahydro-1,6-naphthyridin-3-yl)imidazol[1,2-b]pyridazin-2-yl)acetamide] was run?
A: 0.4 nM

Q: How did the IC50 turn out when `Nc1nc2cc(-c3cnc4c(c3)C(=O)N(Cc3cc(F)ccc3OC3CCOCC3)CC4)ccn2n1` [Z65] was run?
A: 0.5 nM

Q: How did the IC50 turn out when `CC(C)(O)C(=O)N1CC(F)C(N2CCc3ncc(-c4cc(C(F)(F)F)c5c(N)ncnn45)cc3C2=O)C1` (stereo not drawn) [Z33, cis-3-(4-amino-5-(trifluoromethyl)pyrrolo[2,1-f][1,2,4]triazin-7-yl)-6-(4-fluoro-1-(2-hydroxy-2-methylpropionyl)pyrrolidin-3-yl)-7,8-dihydro-1,6-naphthyridin-5(6H)-one] was run?
A: 338 nM

Q: Which IC50 does the source give for `Nc1nc2cc(-c3cnc4c(c3)C(=O)N(Cc3cc(F)ccc3CN3CCOCC3)CC4)ccn2n1` [Z54, 3-(2-amino-[1,2,4]triazolo[1,5-a]pyridyl-7-yl)-6-(5-fluoro-2-(morpholinomethyl)benzyl)-7,8-dihydro-1,6-naphthyridin-5(6H)-one] here?
A: 12 nM

Q: With `Nc1nc2cc(-c3cnc4c(c3)C(=O)N(Cc3cc(F)cc(F)c3OCC3CC3)CC4)ccn2n1` [Z67] as the compound, how does the IC50 read?
A: 0.5 nM

Q: `Cc1nc2c(cc1-c1ccn3nc(N)nc3c1)C(=O)N(Cc1cc(OC(F)(F)F)ccc1F)CC2` [Z57, 3-(2-amino-[1,2,4]triazolo[1,5-a]pyridyl-7-yl)-6-(2-fluoro-5-(trifluoromethoxy)benzyl)-2-methyl-7,8-dihydro-1,6-naphthyridin-5(6H)-one] was tested. Which IC50 did it give?
A: 2 nM

Q: Which IC50 does the source give for `Nc1nc2cc(-c3cnc4c(c3)C(=O)N(Cc3cccnc3OC3CC3)CC4)ccn2n1` [Z77] here?
A: 143 nM

Q: Which IC50 does the source give for `Nc1nc2cc(-c3cnc4c(c3)C(=O)N(Cc3cc(F)ccc3OC3CC3)CC4)ccn2n1` [Z76] here?
A: 4.1 nM

Q: How did the IC50 turn out when `Nc1ncnn2c(-c3cnc4c(c3)C(=O)N(C3CN(C(=O)c5ccc(F)cc5)CC3F)CC4)cc(C(F)(F)F)c12` (stereo not drawn) [Z36, cis-3-(4-amino-5-(trifluoromethyl)pyrrolo[2,1-f][1,2,4]triazin-7-yl)-6-(4-fluoro-1-(4-fluorobenzoyl)pyrrolidin-3-yl)-7,8-dihydro-1,6-naphthyridin-5(6H)-one] was run?
A: 45.3 nM

Q: Which IC50 does the source give for `Nc1nc2cc(-c3cnc4c(c3)C(=O)N(Cc3cc(F)cc(F)c3OC3CCOC3)CC4)ccn2n1` (centres unmarked) [Z71] here?
A: 1.1 nM

Q: Which IC50 does the source give for `Nc1nc2cc(-c3cnc4c(c3)C(=O)N(Cc3ncccc3OC3CC3)CC4)ccn2n1` [Z78] here?
A: 59.5 nM

Q: How did the IC50 turn out when `Nc1nc2cc(-c3cnc4c(c3)C(=O)N(Cc3ccccc3OC3CC3)CC4)ccn2n1` [Z68] was run?
A: 4.3 nM

Q: How did the IC50 turn out when `Cc1cc(-c2cnc3c(c2)C(=O)N(c2cnn(C(C)c4ccc(F)cc4)c2)CC3)n2ncnc(N)c12` (centres unmarked) [Z97] was run?
A: 0.2 nM

Q: Which IC50 does the source give for `C[C@H](c1ccc(F)cc1)n1cc(N2CCc3ncc(-c4cc(C(F)(F)F)c5c(N)ncnn45)cc3C2=O)cn1` (single isomer, unassigned) [Z35-1] here?
A: 0.3 nM

Q: How did the IC50 turn out when `Nc1nc2cc(-c3cnc4c(c3)C(=O)N(Cc3cc(F)ccc3OC3COC3)CC4)ccn2n1` [Z79] was run?
A: 47.6 nM

Q: Which IC50 does the source give for `CC(c1ccc(F)cc1)n1cc(N2CCc3ncc(-c4cc(C(F)(F)F)c5c(N)ncnn45)cc3C2=O)cn1` (centres unmarked) [Z35] here?
A: 0.3 nM

Q: `CC(=O)Nc1cn2nc(-c3cnc4c(c3)C(=O)N(C(C)c3ccccc3OC(F)(F)F)CC4)ccc2n1` (centres unmarked) [Z7, N-(6-(5-oxo-6-(1-(2-(trifluoromethoxy)phenyl)ethyl)-5,6,7,8-tetrahydro-1,6-naphthyridin-3-yl)imidazo[1,2-b]pyridazin-2-yl)acetamide] was tested. Which IC50 did it give?
A: 3.9 nM

Q: For `Nc1nc2cc(-c3cnc4c(c3)C(=O)N(Cc3cc(F)ccc3OC3CCOC3)CC4)ccn2n1` (centres unmarked) [Z66], which IC50 is on record?
A: 2.3 nM

Q: Which IC50 does the source give for `O=C(Nc1cn2nc(-c3cnc4c(c3)C(=O)N(Cc3cc(F)cc(F)c3OC3CCOCC3)CC4)ccc2n1)C1CC1` [Z37, N-(6-(6-(3,5-difluoro-2-((tetrahydro-2H-pyran-4-yl)oxy)benzyl)-5-oxo-5,6,7,8-tetrahydro-1,6-naphthyridin-3-yl)imidazo[1,2-b]pyridazin-2-yl)cyclopropanecarboxamide] here?
A: 0.5 nM

Q: Which IC50 does the source give for `Cc1nc2c(cc1-c1ccn3nc(N)nc3c1)C(=O)N(Cc1ncccc1OC1CC1)CC2` [Z93] here?
A: 13 nM

Q: With `O=C1c2cc(-c3ccn4ncnc4c3)cnc2CCN1Cc1cc(F)cc(F)c1OC1CCOCC1` [Z13, 3-([1,2,4]triazolo[1,5-a]pyridin-7-yl)-6-(3,5-difluoro-2-((tetrahydro-2H-pyran-4-yl)oxy)benzyl)-7,8-dihydro-1,6-naphthyridin-5(6H)-one] as the compound, how does the IC50 read?
A: 1.7 nM

same assay, conditions: Homo sapiens, U-937, 48 h, read-out: U937 IC50

Q: How did the IC50 turn out when `CC(=O)Nc1cn2nc(-c3cnc4c(c3)C(=O)N(Cc3cc(F)ccc3OC3CCOCC3)CC4)ccc2n1` [Z21, N-(6-(6-(5-fluoro-2-((tetrahydro-2H-pyran-4-yl)oxy)benzyl)-5-oxo-5,6,7,8-tetrahydro-1,6-naphthyridin-3-yl)imidazo[1,2-b]pyridazin-2-yl)acetamide] was run?
A: 0.6 nM

Q: `Cn1c(N)nc2ccc(-c3cnc4c(c3)C(=O)N(Cc3cc(OC(F)(F)F)ccc3F)CC4)cc21` [Z14, 3-(2-amino-1-methyl-1H-benzo[d]imidazol-6-yl)-6-(2-fluoro-5-(trifluoromethoxy)benzyl)-7,8-dihydro-1,6-naphthyridin-5(6H)-one] was tested. Which IC50 did it give?
A: 10.2 nM

same assay, conditions: U937 cells, human TNF-α and Q-VD-Oph induced necrosis, 48 hours, survival rate; read-out: U937 IC50

Q: With `CC(=O)Nc1cn2nc(-c3cnc4c(c3)C(=O)N(Cc3ncccc3OC3CCOCC3)CC4)ccc2n1` [Z28, N-(6-(5-oxo-6-((3-((tetrahydro-2H-pyran-4-yl)oxy)pyridyl-2-yl)methyl)-5,6,7,8-tetrahydro-1,6-naphthyridin-3-yl)imidazo[1,2-b]pyridazin-2-yl)acetamide] as the compound, how does the IC50 read?
A: 12.7 nM

Q: With `C[C@@](O)(C(=O)N1C[C@@H](N2CCc3ncc(-c4cc(C(F)(F)F)c5c(N)ncnn45)cc3C2=O)[C@@H](F)C1)C(F)(F)F` (single isomer, unassigned) [Z27-2] as the compound, how does the IC50 read?
A: 1.9 nM

Q: For `CC(=O)Nc1nc2cc(-c3cnc4c(c3)C(=O)N(C(C)c3ccccc3OC(F)(F)F)CC4)ccn2n1` (centres unmarked) [Z49, N-(7-(5-oxo-6-(1-(2-(trifluoromethoxy)phenyl)ethyl)-5,6,7,8-tetrahydro-1,6-naphthyridin-3-yl)-[1,2,4]triazolo[1,5-a]pyridyl-2-yl)acetamide], which IC50 is on record?
A: 26 nM

same assay, conditions: U-937; U937 cells, human TNF-α and Q-VD-Oph induced necrosis, 48 hours, survival rate; read-out: U937 IC50

Q: `Nc1nc2cc(-c3cnc4c(c3)C(=O)N(Cc3ncccc3OC3CCOCC3)CC4)ccn2n1` [Z62, 3-(2-amino-[1,2,4]triazolo[1,5-a]pyridin-7-yl)-6-((3-((tetrahydro-2H-pyran-4-yl)oxy)pyridin-2-yl)methyl)-7,8-dihydro-1,6-naphthyridin-5(6H)-one] was tested. Which IC50 did it give?
A: 13 nM

Q: Which IC50 does the source give for `Nc1nc2cc(-c3cnc4c(c3)C(=O)N(Cc3ncccc3OCC3CC3)CC4)ccn2n1` [Z61, 3-(2-amino-[1,2,4]triazolo[1,5-a]pyridyl-7-yl)-6-((3-(cyclopropylmethoxy)pyridyl-2-yl)methyl)-7,8-dihydro-1,6-naphthyridin-5(6H)-one] here?
A: 14 nM

Q: Which IC50 does the source give for `[2H]C([2H])([2H])C(=O)Nc1cn2nc(-c3cnc4c(c3)C(=O)N(Cc3cc(F)cc(F)c3OC3CCOCC3)CC4)ccc2n1` [Z38, N-(6-(6-(3,5-difluoro-2-((tetrahydro-2H-pyran-4-yl)oxy)benzyl)-5-oxo-5,6,7,8-tetrahydro-1,6-naphthyridin-3-yl)imidazo[1,2-b]pyridazin-2-yl)acetamide-2,2,2-d3] here?
A: 1.3 nM

Q: How did the IC50 turn out when `CNc1nc2cc(-c3cnc4c(c3)C(=O)N(Cc3cc(OC(F)(F)F)ccc3F)CC4)ccn2n1` [Z59, 6-(2-fluoro-5-(trifluoromethoxy)benzyl)-3-(2-(methylamino)-[1,2,4]triazolo[1,5-a]pyridyl-7-yl)-7,8-dihydro-1,6-naphthyridin-5(6H)-one] was run?
A: 12 nM

Q: Which IC50 does the source give for `Nc1ncnn2c(-c3cnc4c(c3)C(=O)N(Cc3cc(OC(F)(F)F)ccc3F)CC4)cc(C(F)(F)F)c12` [Z24, 3-(4-amino-5-(trifluoromethyl)pyrrolo[2,1-f][1,2,4]triazin-7-yl)-6-(2-fluoro-5-(trifluoromethoxy)benzyl)-7,8-dihydro-1,6-naphthyridin-5(6H)-one] here?
A: 36.5 nM

Q: For `CC(c1cc(OC(F)(F)F)ccc1F)N1CCc2ncc(-c3ccn4nc(N)nc4c3)cc2C1=O` (centres unmarked) [Z60, 3-(2-amino-[1,2,4]triazolo[1,5-a]pyridyl-7-yl)-6-(1-(2-fluoro-5-(trifluoromethoxy)phenyl)ethyl)-7,8-dihydro-1,6-naphthyridin-5(6H)-one], which IC50 is on record?
A: 162 nM

Q: `Nc1nc2cc(-c3cnc4c(c3)C(=O)N(Cc3cc(OC(F)(F)F)ccc3F)CC4)ccc2o1` [Z17, 3-(2-aminobenzo[d]oxazol-5-yl)-6-(2-fluoro-5-(trifluoromethoxy)benzyl)-7,8-dihydro-1,6-naphthyridin-5(6H)-one] was tested. Which IC50 did it give?
A: 57.5 nM

Q: How did the IC50 turn out when `CC(=O)Nc1cn2nc(-c3cnc4c(c3)C(=O)N(Cc3cc(F)ccc3-c3cnn(C)c3)CC4)ccc2n1` [Z23, N-(6-(6-(5-fluoro-2-(1-methyl-1H-pyrazol-4-yl)benzyl)-5-oxo-5,6,7,8-tetrahydro-1,6-naphthyridin-3-yl)imidazo[1,2-b]pyridazin-2-yl)acetamide] was run?
A: 24.3 nM
